One assay concerns db/db mice. As to conditions: cited from earlier work.
Assay [1] addresses T1, His-tagged human SHIP1 phosphatase domain (Homo sapiens, UniProt Q92835).
T1 construct: Recombinant His-tagged human SHIP2 and SHIP1 phosphatase domains were produced as previously described; His; made in house
T1 sequence (Q92835 399-715 limits assumed): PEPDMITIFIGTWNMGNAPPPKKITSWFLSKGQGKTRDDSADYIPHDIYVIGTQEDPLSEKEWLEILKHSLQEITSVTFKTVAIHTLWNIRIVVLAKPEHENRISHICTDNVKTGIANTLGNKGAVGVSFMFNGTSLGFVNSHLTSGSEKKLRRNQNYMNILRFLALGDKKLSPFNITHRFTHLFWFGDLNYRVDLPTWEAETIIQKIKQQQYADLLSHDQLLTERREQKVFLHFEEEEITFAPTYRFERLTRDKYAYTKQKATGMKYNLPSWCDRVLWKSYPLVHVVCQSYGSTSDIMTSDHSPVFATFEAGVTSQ
The experiment in a line: Malachite green phosphate assay, recombinant SHIP1 phosphatase domain (High Throughput Biomedicine Unit). In kind it is biochemical. The conditions noted are these: for inhibition at 100 µM: inhibitors at 100 µM concentration, read-out: SHIP1 Inhibition efficiency; for pIC50: purified His-tagged phosphatase domain. The method, then: (§1) Recombinant His-tagged human SHIP2 and SHIP1 phosphatase domains were produced as previously described ([17]). […] Immunocomplexes were bound to protein G-Sepharose beads at +4°C for 2 h and washed 3 times with malachite green phosphate assay buffer {10 mM 4-(2-hydroxyethyl)-1-piperazineethanesulfonic acid (HEPES), pH 7.25, 6 mM MgCl2, 0.1% 3-[(3-cholamidopropyl)dimethylammonio]-1-propanesulfonate (CHAPS), 250 mM sucrose, and 0.25 mM EDTA}.
(§2) The catalytic activities of the recombinant SHIP2 and SHIP1 phosphatase domains were determined by malachite green phosphate assay at the High Throughput Biomedicine Unit (University of Helsinki) using D-myo-PI(3,4,5)P3 (Echelon Biosciences, Salt Lake City, UT, USA). Different volumes, resulting in desired final concentrations of inhibitors, were transferred to the wells of 384-well plates by using the Echo550 acoustic dispenser (Labcyte, San Jose, CA, USA). Recombinant protein (100 ng) in reaction buffer {10 mM HEPES, pH 7.25, 6 mM MgCl2, 0.1% CHAPS, 250 mM sucrose, and 0.25 mM EDTA} was placed in each well (7.5 µl), and the plates were preincubated at room temperature for 15 min. The phosphatase reaction was started by adding PI(3,4,5)P3 diluted in the reaction buffer (7.5 µl) to each well to reach a final concentration of 100 µM PI(3,4,5)P3 in the 15 µl reaction volume. The plates were incubated at room temperature for 20 min, after which, 15 µl BIOMOL green reagent (Biomol, Plymouth Meeting, PA, USA) was added to each well, and then the plates were incubated for another 25 min at room temperature. Absorbance was measured at 620 nm using a Pherastar FS plate reader (BMG Labtech, Offenburg, Germany). For the manual malachite green phosphate assay in 96-well plates [see Fig. 1; and activity measurement of phosphatase and tensin homolog (PTEN; Signalchem, Richmond, BC, Canada)], the reaction volume was increased to 50 µl, and 100 µl Biomol Green Reagent was added. The catalytic activity of SHIP2 immunoprecipitated from cell and tissue lysates was determined as in Saurus et al. ([22]), omitting SHIP2 inhibitors in lysis buffer, immunoprecipitation reaction, wash, and assay buffers. AS1949490 was synthesized, as described in Supplemental Fig. S1A, or purchased from Tocris Bioscience (Bristol, United Kingdom).

For assay [2], the target named is T2, His-tagged human SHIP2 phosphatase domain (Homo sapiens, UniProt O15357).
T2 construct: we produced a His-tagged human SHIP2 phosphatase domain; His; made in house
T2 sequence (O15357 419-732 limits assumed): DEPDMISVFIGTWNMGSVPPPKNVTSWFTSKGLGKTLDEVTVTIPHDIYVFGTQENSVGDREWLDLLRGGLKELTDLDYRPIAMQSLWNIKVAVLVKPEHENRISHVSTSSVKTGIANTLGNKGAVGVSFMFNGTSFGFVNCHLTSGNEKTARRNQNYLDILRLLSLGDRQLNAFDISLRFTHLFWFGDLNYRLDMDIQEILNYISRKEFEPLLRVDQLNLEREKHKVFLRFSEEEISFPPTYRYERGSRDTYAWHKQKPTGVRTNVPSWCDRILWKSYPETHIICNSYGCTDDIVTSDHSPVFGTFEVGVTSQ
The experiment in a line: Malachite green phosphate assay, recombinant SHIP2 phosphatase domain (High Throughput Biomedicine Unit, 384-well). In kind it is biochemical. As to conditions: for inhibition at 100 µM: inhibitors at 100 µM concentration, read-out: SHIP2 Inhibition efficiency; for pIC50: purified His-tagged phosphatase domain, 100 µM PI(3,4,5)P3. The procedure: as §1, §2

Assay [3] relates to Immortalized human podocytes. The assay can be described thus: Glucose uptake assay in podocytes. Format: cell-based. The procedure: (§3) Immortalized human podocytes were maintained as previously described ([10]). […] Podocytes were lysed as previously described ([21]).
(§4) Glucose uptake assay and On-Cell Western were performed essentially as in Tolvanen et al. ([19]). […] Cells were transferred on ice; incubated with anti-HA IgG in serum-free medium for 15 min, followed by additional incubation in fresh cell differentiation medium for 15 min at +37°C; and fixed with 2% paraformaldehyde for 20 min. Cells were incubated with IRDye 800 donkey anti-mouse IgG and nuclear marker DRAQ-5 (Thermo Fisher Scientific). Detection and quantitation were performed with the Odyssey Infrared Imager (Li-Cor Biosciences, Lincoln, NE, USA).
(§5) L6-GLUT4 myotubes overexpressing SHIP2 were treated and glucose uptake performed as described in C. […] Time point 15 min indicates the amount of HA detected on the cells after 15 min internalization.

Assay [4] has as its system HA-GLUT4-GFP at the plasma membrane of L6-GLUT4 cells. The experiment in a line: On-Cell Western and HA-GLUT4-GFP endocytosis assay in L6-GLUT4 cells. As to conditions: insulin 100 nM, 15 min. In kind it is cell-based, rat. The procedure: as §4
C) Knockdown of SHIP2 reduces metformin-induced glucose uptake. […] L6-GLUT4 myotubes overexpressing SHIP2 were treated and glucose uptake performed as described in C. […] Time point 15 min indicates the amount of HA detected on the cells after 15 min internalization.

The next assay has as its system L6-GLUT4 myotubes. The experiment in a line: Glucose uptake assay in L6-GLUT4 myotubes. In kind it is cell-based, rat. As to conditions: insulin 100 nM, 15 min; serum-starved. The procedure:
as §3, §4, §5

What is called inhibition is the drop in the measured response relative to a control, in per cent. In general, pIC50 refers to −log10 of the IC50, conventionally taken in molar units.

pIC50: −log10 of the molar value.

Consider `O=C(Cc1c(F)cccc1F)Nc1cc(OCc2ccc(Cl)cc2)ccn1` [N-[4-(4-chlorobenzyloxy)pyridin-2-yl]-2-(2,6-difluorophenyl)-acetamide], for which the “PCK1 expression in db/db mice” value with db/db mice is given as “reduce”.

As to `Nc1nc2nc[nH]c2c(=S)[nH]1` [Thioguanine, 2-Amino-1H-purine-6(7H)-thione], in assay [1], the inhibition at 100 µM was 29.9% and the pIC50 is less than 4.30. Further, in assay [2], the inhibition at 100 µM amounted to 44.9% and the pIC50 was 5.05.

For the compound `CC(=O)O[C@]1(C(C)=O)CC[C@H]2[C@@H]3C=C(C)C4=CC(=O)CC[C@]4(C)[C@H]3CC[C@@]21C` [Megestrol acetate, 17-(acetyloxy)-6-methylpregna-4,6-diene-3,20-dione], in assay [1], the inhibition at 100 µM was 30% and the negative-log IC50 (pIC50) is 4.61. Also, in assay [2], the inhibition at 100 µM turned out to be 76.6% and the pIC50 is 5.21.

For the compound `Sc1ncnc2nc[nH]c12` [Mercaptopurine, 3,7-dihydropurine-6-thione], in assay [1], the inhibition at 100 µM worked out at 11.4% and the pIC50 is 4.67. Moreover, in assay [2], the inhibition at 100 µM is 52.9% and the pIC50 is 5.06.

For the compound `NC(=O)c1ncn([C@@H]2O[C@H](CO)[C@@H](O)[C@H]2O)c1N` [AICAR, 5-aminoimidazole-4-carboxamide ribonucleoside], the “glucose uptake in podocytes” value in assay [3] (AICAR 1 mM, 20–24 h, alone) is listed as “failed to increase”. The “glucose uptake in podocytes, insulin combined with AICAR” value in assay [3] (AICAR 1 mM, 20–24 h plus insulin 200 nM, 15 min) is on record as “failed to increase”.

Regarding “Insulin: insulin used to stimulate cells (100 or 200 nM, 15 min)”, the “glucose uptake in podocytes” value in assay [3] (insulin 200 nM, 15 min) is given as “did not respond”. Besides, in assay [4], the “decrease in amount of HA-GLUT4-GFP on the PM after 15 min uptake (endocytosis)” value amounted to 20%. In the assay on L6-GLUT4 myotubes, the “increase in glucose uptake in L6-GLUT4 cells” value stood at 20%.
